From ChEMBL document CHEMBL4052731, “Interconvertible geometric isomers of Plasmodium falciparum dihydroorotate dehydrogenase inhibitors exhibit multiple binding modes” (Bioorg Med Chem Lett, 2017)

What was measured:
[1] = Inhibition of homologous location truncated N-terminal His-tagged Plasmodium falciparum DHODH expressed in Escherichia coli pyrD Sphi6745 by spectrophotometric analysis
[2] = target: Dihydroorotate dehydrogenase (quinone), mitochondrial (Homo sapiens, UniProt Q02127); assay: Inhibition of homologous location truncated N-terminal His-tagged human DHODH expressed in Escherichia coli pyrD Sphi6745 by spectrophotometric analysis
Chain of Dihydroorotate dehydrogenase (quinone), mitochondrial (Q02127 whole entry, the tested form may be a part): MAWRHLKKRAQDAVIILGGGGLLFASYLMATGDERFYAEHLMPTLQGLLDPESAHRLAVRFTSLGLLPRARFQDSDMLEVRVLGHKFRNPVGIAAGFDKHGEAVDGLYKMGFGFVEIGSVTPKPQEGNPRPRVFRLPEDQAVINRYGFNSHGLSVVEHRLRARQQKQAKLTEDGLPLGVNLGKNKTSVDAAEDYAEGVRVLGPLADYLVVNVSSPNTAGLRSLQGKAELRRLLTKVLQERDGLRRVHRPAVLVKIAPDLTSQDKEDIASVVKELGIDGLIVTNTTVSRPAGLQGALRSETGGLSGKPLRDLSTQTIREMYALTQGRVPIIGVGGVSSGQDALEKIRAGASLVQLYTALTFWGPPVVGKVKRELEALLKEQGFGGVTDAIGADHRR

[3] = Selectivity ratio of IC50 for homologous location truncated N-terminal His-tagged human DHODH to IC50 for homologous location truncated N-terminal His-tagged Plasmodium falciparum DHODH

| Compound | IC50 [1] | Ki [1] | IC50 [2] | Ratio IC50 [3] |
| --- | --- | --- | --- | --- |
| CCOC(=O)C(=CNc1ccc2c(c1)c1ccccc1n2CC)C(=O)OCC | 4.4 µM | – | – | – |
| CCn1c2ccccc2c2cc(NC=C(C(C)=O)C(C)=O)ccc21 | > 100 µM | – | – | – |
| CC1(C)OC(=O)C(=CNc2ccc3sc4ccccc4c3c2)C(=O)O1 | > 100 µM | – | – | – |
| CCOC(=O)/C(C#N)=C(/C)Nc1ccc2c(c1)c1ccccc1n2CC | > 100 µM | – | – | – |
| CCOC(=O)/C(=C/Nc1ccc2c(c1)c1ccccc1n2CC)[N+](=O)[O-] | 0.094 µM | 0.037 µM | > 100 µM | – |
| CCOC(=O)/C(=C\Nc1ccc2sc3ccccc3c2c1)[N+](=O)[O-] | 0.38 µM | 0.15 µM | > 100 µM | – |
| CCOC(=O)/C(C#N)=C\Nc1ccc2sc3ccccc3c2c1 | 1.2 µM | – | – | – |
| CCOC(=O)C(=CNc1ccc2sc3ccccc3c2c1)C(=O)OCC | 0.16 µM | 0.02 µM | – | – |
| CCn1c2ccccc2c2cc(NC=C3C(=O)OC(C)(C)OC3=O)ccc21 | > 100 µM | – | – | – |
| CCOC(=O)/C(C#N)=C\Nc1ccc2c(c1)c1ccccc1n2CC | 0.28 to 0.44 µM | 0.05 µM | – | 1000 |
| CCOC(=O)/C(C#N)=C(/C)Nc1ccc2sc3ccccc3c2c1 | > 100 µM | – | – | – |
| CC(=O)C(=CNc1ccc2sc3ccccc3c2c1)C(C)=O | > 100 µM | – | – | – |
